In US8436039B2, “Inhibitors of the ATB(0,+) transporter and uses thereof” (Georgia Health Sciences University Research Institute, Inc., priority 2008, dated 2013):

Columns and labels:
[1] = test system: MDA-MB231, MDA-MB361 and MDA-MB453 cell lines; assay: Colony formation assay, malignant ATB^0,+-negative mammary epithelial cell lines; assay type: cell-based, human; conditions: 2.5 mM, 12 days, no or very low ATB^0,+
Experimental: The colony formation assay was performed as described previously (Thangaraju et al., 2006, Cancer Res. 66, 11560-11564). Mammary epithelial cells were seeded on to 6-well plates (10000 cells per well) in DMEM. After 24 hours, cells were exposed to varying concentrations of α-methyl-DL-tryptophan or 1-methyl-DL-tryptophan for 2 weeks, changing medium every 2 days. Cells were washed with PBS and fixed in 100% (v/v) methanol for 30 min followed by staining with KaryoMAX Giemsa stain for one hour. The wells were washed with water and dried overnight at room temperature. Finally, the dye in the wells was dissolved with 1% SDS in 0.2 M NaOH for one hour, and the attenuance of the released dye was measured at 630 nm.
The present studies have identified α-methyl-DL-tryptophan as a blocker of ATB^0,+ and also have shown that the compound is able to block the transport of amino acids via ATB^0,+ under conditions that stimulate those in vivo in terms of amino acid concentrations. […] For this, we treated the human mammary epithelial cell lines with 2.5 mM α-methyl-DL-tryptophan in the presence of regular culture medium for 12 days in clonogenic assay and quantified the colony formation for each cell line in the presence and absence of α-methyl-DL-tryptophan (FIG. 8). […]

[2] = test system: MCF10A and MDA-MB453 cell lines; assay: Cell cycle analysis (FACS, propidium iodide) in ATB^0,+-negative cell lines; assay type: cell-based, human; conditions: 2.5 mM; 24, 48 and 72 hours
Experimental: MCF10A (an ATB^0,+-negative non-malignant cell line), MCF7 (an ATB^0,+-positive malignant cell line) and MDA-MB453 (an ATB^0,+-negative malignant cell line) cells were cultured in 6-well plates in a regular culture medium in the presence or absence of α-methyl-DL-tryptophan (2.5 mM) for 24, 48 and 72 hours. Cells were fixed in 50% (v/v) ethanol, treated with 0.1% sodium citrate, 1 mg/ml RNase A and 50 μg/ml propidium iodide, and subjected to FACS (Becton Dickinson FACSCalibur™) analysis. The amount of DNA in these cells, detected as chromosome content by propidium iodide binding, was used to identify cells in various stages of cell cycle: G1/G0, 2N; S, 2-4 N; G2/M, 4N (where N is the normal chromosome content).
Since treatment with α-methyl-DL-tryptophan suppressed colony formation in malignant cell lines in an ATB^0,+-dependent manner, we investigated the influence of this treatment on cell cycle to determine which stage of the cycle is affected. We used three different cell lines in this experiment: MCF10A (non-malignant and ATB^0,+-negative), MCF7 (malignant and ATB^0,+-positive) and MDA-MB453 (malignant and ATB^0,+-negative) (FIG. 9). […] In contrast, the treatment affected the cell cycle progression in the ATB^0,+-positive MCF7 cell line. The cells were arrested at G1/G0 stage to a significant extent when treated with α-methyl-DL-tryptophan. […]

SMILES: CC(N)(Cc1c[nH]c2ccccc12)C(=O)O (racemic) [α-methyl-DL-tryptophan]
- effect on colony formation [1]: little or no effect
- effect on cell cycle [2]: no effect on cell cycle
